Measured values reported in patent US9695155B2, “Herbicidal substituted pyrimidinyloxy benzene compounds” (E. I. DU PONT DE NEMOURS AND COMPANY, priority 2013, dated 2017).

Legend:
palmer pigweed = assay: Test E preemergence; assay type: in vivo, Amaranthus palmeri; conditions: for Pigweed, Palmer plant response rating: scale 0 to 100 (0 no effect, 100 complete control); for Plant response rating, Pigweed, Palmer: 125 g ai/ha, scale 0 to 100, 0 no effect, 100 complete control
Method in brief: (§1)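 Compound in a non-phytotoxic solvent mixture with surfactant was applied preemergence to seeds in silt loam soil, or postemergence to plants 2 to 18 cm tall grown in peat-based potting medium. Plants were kept in a greenhouse for 14 to 21 days, then rated visually against untreated controls on a 0 (no effect) to 100 (complete control) scale.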

sandbur = assay: Test E preemergence; assay type: in vivo, Cenchrus echinatus; conditions: for Sandbur plant response rating: scale 0 to 100 (0 no effect, 100 complete control); for Plant response rating, Sandbur: 125 g ai/ha, scale 0 to 100, 0 no effect, 100 complete control
Method in brief: as §1

Italian ryegrass = assay: Test E preemergence; assay type: in vivo, Lolium multiflorum; conditions: for Ryegrass, Italian plant response rating: scale 0 to 100 (0 no effect, 100 complete control); for Plant response rating, Ryegrass, Italian: 125 g ai/ha, scale 0 to 100, 0 no effect, 100 complete control
Method in brief: as §1

lambsquarters = assay: Test E preemergence; assay type: in vivo, Chenopodium album; conditions: for Lambsquarters plant response rating: scale 0 to 100 (0 no effect, 100 complete control); for Plant response rating, Lambsquarters: 125 g ai/ha, scale 0 to 100, 0 no effect, 100 complete control
Method in brief: as §1

corn = assay: Test E preemergence; assay type: in vivo, Zea mays; conditions: for Corn plant response rating: scale 0 to 100 (0 no effect, 100 complete control); for Plant response rating, Corn: 125 g ai/ha, scale 0 to 100, 0 no effect, 100 complete control
Method in brief: as §1

soybean = assay: Test E preemergence; assay type: in vivo, Glycine max; conditions: for Soybean plant response rating: scale 0 to 100 (0 no effect, 100 complete control); for Plant response rating, Soybean: 125 g ai/ha, scale 0 to 100, 0 no effect, 100 complete control
Method in brief: as §1

morningglory = assay: Test E preemergence; assay type: in vivo, Ipomoea coccinea; conditions: for Morningglory plant response rating: scale 0 to 100 (0 no effect, 100 complete control); for Plant response rating, Morningglory: 125 g ai/ha, scale 0 to 100, 0 no effect, 100 complete control
Method in brief: as §1

kochia = assay: Test A postemergence; assay type: in vivo, Kochia scoparia; conditions: for Kochia plant response rating: 125 g ai/ha
Method in brief: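 Compounds in non-phytotoxic solvent with surfactant applied as soil spray preemergence, or postemergence to plants 2-10 cm at one- to two-leaf stage, in loam/sand. After approximately 10 days in greenhouse, injury rated visually versus untreated controls, 0 (no effect) to 100 (complete control).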

surinam grass = assay: Test E preemergence; assay type: in vivo, Brachiaria decumbens; conditions: for Surinam Grass plant response rating: scale 0 to 100 (0 no effect, 100 complete control); for Plant response rating, Surinam Grass: 125 g ai/ha, scale 0 to 100, 0 no effect, 100 complete control
Method in brief: as §1

fall panicum = assay: Test E preemergence; assay type: in vivo, Panicum dichotomiflorum; conditions: for Panicum, Fall plant response rating: scale 0 to 100 (0 no effect, 100 complete control); for Plant response rating, Panicum, Fall: 125 g ai/ha, scale 0 to 100, 0 no effect, 100 complete control
Method in brief: as §1

goosegrass = assay: Test E preemergence; assay type: in vivo, Eleusine indica; conditions: for Goosegrass plant response rating: scale 0 to 100 (0 no effect, 100 complete control); for Plant response rating, Goosegrass: 125 g ai/ha, scale 0 to 100, 0 no effect, 100 complete control
Method in brief: as §1

waterhemp = assay: Test E preemergence; assay type: in vivo, Amaranthus rudis; conditions: for Waterhemp plant response rating: scale 0 to 100 (0 no effect, 100 complete control); for Plant response rating, Waterhemp: 125 g ai/ha, scale 0 to 100, 0 no effect, 100 complete control
Method in brief: as §1

giant foxtail = assay: Test E preemergence; assay type: in vivo, Setaria faberii; conditions: for Foxtail, Giant plant response rating: scale 0 to 100 (0 no effect, 100 complete control); for Plant response rating, Foxtail, Giant: 125 g ai/ha, scale 0 to 100, 0 no effect, 100 complete control
Method in brief: as §1

[1] = 0 to 100 scale where 0 is no effect and 100 is complete control

FC(F)(F)COc1cnn(-c2ccccc2Oc2ncc(Cl)cn2)c1 [Compound 138, 5-chloro-2-[2-[4-(2,2,2-trifluoroethoxy)-1H-pyrazol-1-yl]phenoxy]pyrimidine]
15: Plant response rating, Sandbur (sandbur) | Corn plant response rating (corn; 62 g ai/ha)
50: Lambsquarters plant response rating (lambsquarters; 31 g ai/ha) | Plant response rating, Surinam Grass (surinam grass) | Goosegrass plant response rating (goosegrass; 62 g ai/ha)
20: Plant response rating, Ryegrass, Italian (Italian ryegrass) | Surinam Grass plant response rating (surinam grass; 62 g ai/ha)
0: Pigweed, Palmer plant response rating (palmer pigweed; 16 g ai/ha) | Sandbur plant response rating (sandbur; 16 g ai/ha) | Sandbur plant response rating (sandbur; 31 g ai/ha) | Ryegrass, Italian plant response rating (Italian ryegrass; 16 g ai/ha) | Ryegrass, Italian plant response rating (Italian ryegrass; 31 g ai/ha) | Ryegrass, Italian plant response rating (Italian ryegrass; 62 g ai/ha) | Lambsquarters plant response rating (lambsquarters; 16 g ai/ha) | Corn plant response rating (corn; 16 g ai/ha) | Corn plant response rating (corn; 31 g ai/ha) | Soybean plant response rating (soybean; 16 g ai/ha) | Soybean plant response rating (soybean; 31 g ai/ha) | Morningglory plant response rating (morningglory; 16 g ai/ha) | Morningglory plant response rating (morningglory; 31 g ai/ha) | Morningglory plant response rating (morningglory; 62 g ai/ha) | Surinam Grass plant response rating (surinam grass; 16 g ai/ha) | Surinam Grass plant response rating (surinam grass; 31 g ai/ha) | Panicum, Fall plant response rating (fall panicum; 16 g ai/ha) | Waterhemp plant response rating (waterhemp; 16 g ai/ha) | Foxtail, Giant plant response rating (giant foxtail; 16 g ai/ha) | Foxtail, Giant plant response rating (giant foxtail; 31 g ai/ha)
25: Panicum, Fall plant response rating (fall panicum; 31 g ai/ha)
10: Sandbur plant response rating (sandbur; 62 g ai/ha) | Goosegrass plant response rating (goosegrass; 16 g ai/ha)
35: Plant response rating, Corn (corn) | Plant response rating, Soybean (soybean)
75: Pigweed, Palmer plant response rating (palmer pigweed; 62 g ai/ha) | Plant response rating, Foxtail, Giant (giant foxtail)
100: Lambsquarters plant response rating (lambsquarters; 62 g ai/ha) | Plant response rating, Lambsquarters (lambsquarters) | Plant response rating, Kochia (kochia; 500 g ai/ha, 0 to 100 scale where 0 is no effect and 100 is complete control) | Panicum, Fall plant response rating (fall panicum; 62 g ai/ha) | Plant response rating, Panicum, Fall (fall panicum) | Waterhemp plant response rating (waterhemp; 31 g ai/ha) | Plant response rating, Waterhemp (waterhemp)
30: Goosegrass plant response rating (goosegrass; 31 g ai/ha) | Foxtail, Giant plant response rating (giant foxtail; 62 g ai/ha)
90: Kochia plant response rating (kochia; [1]) | Waterhemp plant response rating (waterhemp; 62 g ai/ha)
40: Plant response rating, Morningglory (morningglory)
70: Pigweed, Palmer plant response rating (palmer pigweed; 31 g ai/ha) | Plant response rating, Pigweed, Palmer (palmer pigweed) | Plant response rating, Goosegrass (goosegrass)

N#Cc1cnn(-c2c(CF)cccc2Oc2ncc(F)cn2)c1 [Compound 151]
100: Pigweed, Palmer plant response rating (palmer pigweed; 31 g ai/ha) | Pigweed, Palmer plant response rating (palmer pigweed; 62 g ai/ha) | Plant response rating, Pigweed, Palmer (palmer pigweed) | Lambsquarters plant response rating (lambsquarters; 31 g ai/ha) | Lambsquarters plant response rating (lambsquarters; 62 g ai/ha) | Plant response rating, Lambsquarters (lambsquarters) | Plant response rating, Surinam Grass (surinam grass) | Panicum, Fall plant response rating (fall panicum; 62 g ai/ha) | Plant response rating, Waterhemp (waterhemp)
25: Foxtail, Giant plant response rating (giant foxtail; 31 g ai/ha)
30: Soybean plant response rating (soybean; 31 g ai/ha)
75: Plant response rating, Soybean (soybean) | Waterhemp plant response rating (waterhemp; 31 g ai/ha)
70: Goosegrass plant response rating (goosegrass; 62 g ai/ha)
35: Plant response rating, Sandbur (sandbur) | Surinam Grass plant response rating (surinam grass; 62 g ai/ha)
10: Ryegrass, Italian plant response rating (Italian ryegrass; 31 g ai/ha) | Ryegrass, Italian plant response rating (Italian ryegrass; 62 g ai/ha)
60: Plant response rating, Kochia (kochia; 31 g ai/ha, 0 to 100 scale, 0 no effect, 100 complete control) | Panicum, Fall plant response rating (fall panicum; 31 g ai/ha) | Foxtail, Giant plant response rating (giant foxtail; 62 g ai/ha)
90: Kochia plant response rating (kochia; [1])
85: Plant response rating, Goosegrass (goosegrass)
65: Plant response rating, Ryegrass, Italian (Italian ryegrass)
0: Sandbur plant response rating (sandbur; 31 g ai/ha) | Sandbur plant response rating (sandbur; 62 g ai/ha) | Corn plant response rating (corn; 16 g ai/ha) | Corn plant response rating (corn; 31 g ai/ha) | Corn plant response rating (corn; 62 g ai/ha) | Plant response rating, Corn (corn) | Morningglory plant response rating (morningglory; 31 g ai/ha) | Morningglory plant response rating (morningglory; 62 g ai/ha) | Plant response rating, Morningglory (morningglory) | Surinam Grass plant response rating (surinam grass; 31 g ai/ha) | Goosegrass plant response rating (goosegrass; 31 g ai/ha) | Foxtail, Giant plant response rating (giant foxtail; 16 g ai/ha)
98: Plant response rating, Panicum, Fall (fall panicum) | Waterhemp plant response rating (waterhemp; 62 g ai/ha)
95: Plant response rating, Foxtail, Giant (giant foxtail)
